US20060111286A1, “Method of modulating endothelial cell activity” (priority 2002, published 2006)
“Also recorded” adds a separate entry of the source. Like-named read-outs stand apart in the source and are kept apart here.

Experiments:
protein kinase Cζ [1] = assay: Immunoblotting for phosphorylated Thr410 of over-expressed protein kinase Cζ in endothelial cells; assay type: cell-based, human; settings: for effect on thrombin stimulated protein kinase Cζ phosphorylation (Thr410): then thrombin 0.2 U/ml, FLAG-protein kinase Cζ over-expressing cells
Description: (§1) Human umbilical vein endothelial cells were grown in M119 medium with 20% foetal calf serum (FCS) as described (Litwin, M., Clark, K., Noack, L., Furze, J., Berndt, M., Albelda, S., Vadas, M., Gamble, J. (1997) J Cell Biol. 139:219-28). Cells were used at passage 4 or less. For infection with adenoviral constructs, cells were grown to 80% confluence and exposed to 2.5×10^6 plaque forming units/25 cm^2 culture area for 2 hours in M119 medium with 2% FCS and a further 22 hours with 20% FCS.
Endothelial cells were plated into fibronectin coated flasks before infection as above. Following infection, cells were serum depleted (0.2% FCS) overnight. Cells were then treated with angiopoietin-1, thrombin and/or bisindolylmaleimide I, as required, lysed in ice-cold lysis buffer (50 mM Tris.HCl, pH 7.4, with 1% NP-40, 150 mM NaCl, 2 mM EGTA, 1 mM NaPO4, 100 mM NaF, 10 mM sodium pyrophosphate and protease inhibitor cocktail). Protein concentrations were assayed using Bradford Reagent (BioRad, Hercules, Calif., USA). Equal amounts of protein were loaded onto 10% acrylamide gels, separated by SDS-PAGE, transferred to PVDF membrane, blocked with 5% skim milk powder and 0.1% Triton-X100 in phosphate buffered saline, and probed with a polyclonal rabbit antibody directed against phosphorylated Thr410 of the activation loop of protein kinase Cζ (Chou, M. M., Hou, W., Johnson, J., Graham, L. K., Lee, M. H., Chen, C. S., Newton, A. C., Schaffhausen, B. S., Toker, A. (1998) Curr Biol. 8:1069-77). This antibody was a generous gift from Dr Alex Toker. After washing, membranes were incubated with anti-rabbit secondary antibody and reactive bands were detected by chemiluminescence (ECL Western Blotting Detection Reagents, Amersham Pharmacia Biotech, Little Chalfont, England, UK). Membranes were stripped using stripping buffer (Re-Blot Plus Western Blot Recycling Kit, Chemicon, Temecula Calif., USA) and re-probed with rabbit anti-protein kinase Cζ immunoaffinity purified IgG (Upstate Biotechnology, Lake Placid N.Y., USA).

[2] = test system: protein kinase C isoforms; settings: cited from earlier work
[3] = test system: human umbilical vein endothelial cells; assay: Endothelial permeability assay: passage of FITC-conjugated dextran through thrombin-treated endothelial cell monolayers in transwells; assay type: cell-based; settings: then thrombin 0.2 U/ml
Description: Cells were used at passage 4 or less. For infection with adenoviral constructs, cells were grown to 80% confluence and exposed to 2.5×10^6 plaque forming units/25 cm^2 culture area for 2 hours in M119 medium with 2% FCS and a further 22 hours with 20% FCS.
Endothelial cells (10^5) were cultured in transwells (3 μ-pore size, Corning Costar Corp, Cambridge, Mass., USA) for 24 hours in complete medium and then in 2% FCS medium for a further 24 hours. Cells were pre-treated with either bisindolylmaleimide I (10 nM or 6 μM), Calphostin C (100 nM), chelerythrine chloride (1 μM), H-89 (50 nM) or angiopoietin-1 (0.1 μg/ml), as required. FITC-conjugated dextran (0.2 μg) was added to the upper chamber of all wells and cells were then treated with thrombin (0.2 U/ml). […] Adenovirus infected ECs were plated on to transwells 24 hours after the above infection procedure and treated in the same manner as uninfected cells.

protein kinase Cζ [4] = assay: Immunofluorescence staining of protein kinase Cζ localisation in endothelial cell monolayers; assay type: cell-based, human; settings: for effect on thrombin stimulated protein kinase Cζ relocalisation to the membrane: then thrombin 0.2 U/ml
Description: as §1
(§2) 6×10^4 endothelial cells were cultured in fibronectin coated glass LabTek chamber slides (Nalge Nunc International, Naperville, Ill., USA) and incubated for 3 days prior to staining. Cells were then treated with angiopoietin-1, thrombin and/or bisindolylmaleimnide I, as required. Cells were washed once in PBS, fixed in 4% paraformnaldehyde/PBS for 5 minutes, permeabilized with acetone for 5 min at −20° C. and then washed twice with PBS. The fixed cells were incubated with rabbit anti-protein kinase Cζ immunoaffmity purified IgG or anti-protein kinase Cλ (BD Transduction Laboratories, San Diego, Calif., USA) overnight at 4° C. followed by FITC-conjugated anti-rabbit antibody (Rockland, Gilbertsville Pa., USA). Coverslips were mounted using fluorescent microscopy mounting medium (Dako Corp., Carpinteria, Calif., USA). Cells were imaged by epifluorescent microscopy on an Olympus BX-51 microscope (Olympus, Hamburg, Germany) equipped with excitation filters for fluorescein (494 nm) acquired to a Photometrics Cool Snap FX charge-coupled device camera (Roper Scientific GmbH, Germany). Images were adjusted for brightness and contrast using V^++ software (Digital Optics Ltd., Aucldand, New Zealand).

protein kinase Cλ = assay: Immunofluorescence staining of protein kinase Cλ localisation in endothelial cell monolayers; assay type: cell-based, human; settings: thrombin 0.2 U/ml alone, confluent monolayers
Description: as §1
as §2, with “Cells were imaged by epifluorescent microscopy on an Olympus BX-51 microscope (Olympus, Hamburg, Germany) equipped with excitation filters for fluorescein (494 nm) acquired to a Photometrics Cool Snap FX charge-coupled device camera (Roper Scientific GmbH, Germany). Images were adjusted for brightness and contrast using V^++ software (Digital Optics Ltd., Aucldand, New Zealand).” left out

CN(C)CCCn1cc(C2=C(c3c[nH]c4ccccc34)C(=O)NC2=O)c2ccccc21.Cl [bisindolylmaleimide I, Bisindolylmaleimide I hydrochloride]
effect on thrombin stimulated protein kinase Cζ phosphorylation (Thr410) (protein kinase Cζ [1]; 6 μM for 15 minutes): inhibited thrombin stimulated protein kinase Cζ phosphorylation | protein kinase C isoforms inhibited ([2]; 100 nM): inhibits classical and novel protein kinase C isoforms | protein kinase C isoforms inhibited ([2]; 6 μM): inhibits all protein cinase C isoforms | effect on thrombin stimulated endothelial cell permeability increase ([3]; 100 nM, pre-treated 15 mins): had no effect on the thrombin-induced increases of endothelial cell permeability | effect on thrombin stimulated endothelial cell permeability increase ([3]; 6 μM, pre-treated 15 mins, hydrochloride): inhibited thrombin stimulation of endothelial cell permeability | effect on thrombin stimulated endothelial cell permeability increase ([3]; 6 μM, pre-treated 15 mins, listed as Bisindolylmaleimide I, hydrochloride): blocks thrombin-stimulated permeability increases | effect on thrombin stimulated protein kinase Cζ relocalisation to the membrane (protein kinase Cζ [4]; 6 μM for 15 minutes): dramatically decreased

Calphostin C
effect on thrombin stimulated endothelial cell permeability increase ([3]; 100 nM, pre-treated 15 mins): had no effect on the thrombin-induced increases of endothelial cell permeability; also recorded: does not block thrombin-stimulated permeability increases

Thrombin
phosphorylation of over-expressed protein kinase Cζ (Thr410) (protein kinase Cζ [1]; thrombin 0.2 U/ml for 15 minutes alone): increased the phosphorylation of over-expressed protein kinase Cζ | protein kinase Cζ localisation (protein kinase Cζ [4]; thrombin 0.2 U/ml alone, confluent monolayers): localized to the cell membrane | protein kinase Cλ localisation (protein kinase Cλ): remained evenly distributed

O=S(=O)(NCCNC/C=C/c1ccc(Br)cc1)c1cccc2cnccc12 [H-89]
effect on thrombin stimulated endothelial cell permeability increase ([3]; 50 nM, pre-treated 15 mins): has no effect on thrombin induced permeability changes; also recorded: has no effect on thrombin-stimulated permeability increases

B1: Angiopoietin-1 (protein, UniProt Q15389 16-498, looked up)
Angiopoietin-1: HIGCSNQRRSPENSGRRYNRIQHGQCAYTFILPEHDGNCRESTTDQYNTNALQRDAPHVEPDFSSQKLQHLEHVMENYTQWLQKLENYIVENMKSEMAQIQQNAVQNHTATMLEIGTSLLSQTAEQTRKLTDVETQVLNQTSRLEIQLLENSLSTYKLEKQLLQQTNEILKIHEKNSLLEHKILEMEGKHKEELDTLKEEKENLQGLVTRQTYIIQELEKQLNRATTNNSVLQKQQLELMDTVHNLVNLCTKEGVLLKGGKREEEKPFRDCADVYQAGFNKSGIYTIYINNMPEPKKVFCNMDVNGGGWTVIQHREDGSLDFQRGWKEYKMGFGNPSGEYWLGNEFIFAITSQRQYMLRIELMDWEGNRAYSQYDRFHIGNEKQNYRLYLKGHTGTAGKQSSLILHGADFSTKDADNDNCMCKCALMLTGGWWFDACGPSNLNGMFYTAGQNHGKLNGIKWHYFKGPSYSLRSTTMMIRPLDF
notes: Angiopoietin-1, obtained from Regeneron Inc
effect on thrombin stimulated protein kinase Cζ phosphorylation (Thr410) (protein kinase Cζ [1]; 0.1 μg/ml for 30 minutes): inhibited thrombin stimulated protein kinase Cζ phosphorylation; also recorded: blocking thrombin stimulated protein kinase Cζ phoshorylation | effect on thrombin stimulated endothelial cell permeability increase ([3]; 0.1 μg/ml, pre-treated 30 min): inhibiting thrombin stimulated endothelial cell permeability increases | effect on thrombin stimulated endothelial cell permeability increase ([3]; 0.1 μg/ml, pre-treated 30 min, listed as Angiopoietin-1): can inhibit the thrombin-induced increase of endothelial cell permeability | effect on thrombin stimulated protein kinase Cζ relocalisation to the membrane (protein kinase Cζ [4]; 0.1 μg/ml for 30 minutes): dramatically decreased; also recorded: blocking thrombin stimulated protein kinase Cζ relocalisation
